Measured values reported in US20070203104A1, “Pharmaceutical Formulations” (priority 2006, published 2007).

Tests used:
[1] = symptoms associated with chronic nasal congestion, cited from earlier work
[2] = Solubility; format: physicochemical
[3] = cited from earlier work
[4] = test system: rhinoviruses; conditions: cited from earlier work
[5] = test system: secretions of natural tear components; conditions: preclinical testing; cited from earlier work
[6] = cited from earlier work; remark: listed apart in the source

Structure (SMILES): Oc1cccc(Nc2ncc(F)c(Nc3cccc(O)c3)n2)c1 [Example R112]
- improvement from baseline measurements ([1]; baseline prior to drug initiation): up to 38%
- absolute difference over placebo [1]: 9%
- relative improvement over placebo [1]: greater than 20%

Structure (SMILES): Cc1cc(CCCOc2c(C)cc(-c3noc(C(F)(F)F)n3)cc2C)on1 [Pleconaril, 1,2,4-oxadiazole3-[3,5-Dimethyl-4-[3-(3-methyl-5-isoxazolyl)propoxy]phenyl]-5-(trifluoremethyl)]
- solubility in condensed phases of hydrofluorocarbons ([2]; certain condensed phases of hydrofluorocarbons, e.g. HFA 227): can be dissolved
- solubility in certain glyceride oils ([2]; certain glyceride oils, e.g. Miglyol 812): can be dissolved
- solubility in aqueous solvents [3]: insoluble
- activity against rhinoviruses [4]: active

Structure (SMILES): O=c1ccn([C@@H]2O[C@H](COP(=O)(O)OP(=O)(O)OP(=O)(O)OP(=O)(O)OC[C@H]3O[C@@H](n4ccc(=O)[nH]c4=O)[C@H](O)[C@@H]3O)[C@@H](O)[C@H]2O)c(=O)[nH]1 [diquafosol]
- secretions of natural tear components [5]: increased

Structure (SMILES): C[C@@H]1C[C@H]2[C@@H]3CCC4=CC(=O)C=C[C@]4(C)[C@@]3(Cl)[C@@H](O)C[C@]2(C)[C@@]1(OC(=O)c1ccco1)C(=O)CCl [Mometasone Furoate]
- bioavailability [6]: not readily bioavailable
